Measurements reported in ChEMBL document CHEMBL1158653, “Plant anticancer agents X. Isolation of camptothecin and 9-methoxycamptothecin from Ervatamia heyneana” (1979).
≈ marks a conversion by molar mass, not a printed value.

What was measured:
Assay type in all cases: functional
KB = test: Cytotoxicity against human KB cells; conditions: read-out: ED50 (the source's name)
P388 [1] = test: Cytotoxicity against mouse P388 cells; conditions: read-out: ED50 (the source's name)
P388 [2] = test: Cytotoxicity against mouse P388 cells in in vivo based assay at 1.56 mg/kg relative to control
P388 [3] = test: Cytotoxicity against mouse P388 cells in in vivo based assay at 0.78 mg/kg relative to control

Compound | EC50 (KB) [µg/mL] | EC50 (P388 [1]) [µg/mL] | T/C (P388 [2]) [%] | T/C (P388 [3]) [%]
CC[C@@]1(O)C(=O)OCc2c1cc1n(c2=O)Cc2cc3c(OC)cccc3nc2-1 | 0.17 (≈ 0.449 µM) | 0.53 (≈ 1.4 µM) |  | 
CC[C@@]1(O)C(=O)OCc2c1cc1n(c2=O)Cc2cc3ccccc3nc2-1 [CAMPTOTHECIN] |  |  | 181 | 175
